# Measurements reported in PubChem BioAssay AID1918957 (Molecular Pharmacology Branch, DTP, NCI, 2023).
# Test system: NCI-H1876 complex spheroid viability
# Test: Anticancer human tumor NCI-H1876 cell line growth inhibition [LSD1];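 note: spheroids exposed to compounds for one week before readout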;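 for viability, T/C: 100% = DMSO vehicle-treated spheroids so lower means fewer viable cells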
# Conditions: for IC50: curve of first compound; for viability, T/C: stronger effect = lower value
# Outline: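 Complex spheroids of tumor cells with HUVEC and human MSCs, exposed to iadademstat combined with other agents. Each agent tested in half-log steps from near clinical Cmax (else 10 microM top), DMSO ≤0.25%.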
structure (smiles),measurement,setting,value
Nc1ccccc1NC(=O)c1ccc(CNC(=O)OCc2cccnc2)cc1 + NC1CC1c1ccc(-c2cccc(O)c2)cc1,IC50,second compound 0.1 µM,0.081 µM
same,IC50,second compound 0.316 µM,0.0668 µM
same,IC50,second compound 1 µM,0.0615 µM
same,IC50,second compound 3.16 µM,0.0652 µM
same,IC50,second compound 10 µM,0.0682 µM
same,"viability, T/C","second compound 0.1 µM, first compound 0.00949 µM",91.1%
same,"viability, T/C","second compound 0.1 µM, first compound 0.03 µM",88.8%
same,"viability, T/C","second compound 0.1 µM, first compound 0.0949 µM",43.1%
same,"viability, T/C","second compound 0.1 µM, first compound 0.3 µM",9.94%
same,"viability, T/C","second compound 0.1 µM, first compound 0.949 µM",2.94%
same,"viability, T/C","second compound 0.1 µM, first compound 3 µM",0.49%
same,"viability, T/C","second compound 0.316 µM, first compound 0.00949 µM",83.6%
same,"viability, T/C","second compound 0.316 µM, first compound 0.03 µM",71.9%
same,"viability, T/C","second compound 0.316 µM, first compound 0.0949 µM",40.9%
same,"viability, T/C","second compound 0.316 µM, first compound 0.3 µM",9.16%
same,"viability, T/C","second compound 0.316 µM, first compound 0.949 µM",3.03%
same,"viability, T/C","second compound 0.316 µM, first compound 3 µM",0.41%
same,"viability, T/C","second compound 1 µM, first compound 0.00949 µM",85.1%
same,"viability, T/C","second compound 1 µM, first compound 0.03 µM",75.5%
same,"viability, T/C","second compound 1 µM, first compound 0.0949 µM",34.4%
same,"viability, T/C","second compound 1 µM, first compound 0.3 µM",8.61%
same,"viability, T/C","second compound 1 µM, first compound 0.949 µM",2.73%
same,"viability, T/C","second compound 1 µM, first compound 3 µM",0.38%
same,"viability, T/C","second compound 3.16 µM, first compound 0.00949 µM",84.6%
same,"viability, T/C","second compound 3.16 µM, first compound 0.03 µM",76%
same,"viability, T/C","second compound 3.16 µM, first compound 0.0949 µM",37.3%
same,"viability, T/C","second compound 3.16 µM, first compound 0.3 µM",8.61%
same,"viability, T/C","second compound 3.16 µM, first compound 0.949 µM",2.69%
same,"viability, T/C","second compound 3.16 µM, first compound 3 µM",0.45%
same,"viability, T/C","second compound 10 µM, first compound 0.00949 µM",78.6%
same,"viability, T/C","second compound 10 µM, first compound 0.03 µM",70.5%
same,"viability, T/C","second compound 10 µM, first compound 0.0949 µM",41.5%
same,"viability, T/C","second compound 10 µM, first compound 0.3 µM",13.3%
same,"viability, T/C","second compound 10 µM, first compound 0.949 µM",2.64%
same,"viability, T/C","second compound 10 µM, first compound 3 µM",0.52%
O=C(c1cc(Cc2n[nH]c(=O)c3ccccc23)ccc1F)N1CCN(C(=O)C2CC2)CC1 + NC1CC1c1ccc(-c2cccc(O)c2)cc1,IC50,second compound 0.1 µM,6.19 µM
same,IC50,second compound 0.316 µM,6.21 µM
same,IC50,second compound 1 µM,6.35 µM
same,IC50,second compound 3.16 µM,6.41 µM
same,IC50,second compound 10 µM,6.49 µM
same,"viability, T/C","second compound 0.1 µM, first compound 0.0316 µM",101%
same,"viability, T/C","second compound 0.1 µM, first compound 0.1 µM",99.9%
same,"viability, T/C","second compound 0.1 µM, first compound 0.316 µM",98.2%
same,"viability, T/C","second compound 0.1 µM, first compound 1 µM",90.3%
same,"viability, T/C","second compound 0.1 µM, first compound 3.16 µM",68.3%
same,"viability, T/C","second compound 0.1 µM, first compound 10 µM",36.9%
same,"viability, T/C","second compound 0.316 µM, first compound 0.0316 µM",103%
same,"viability, T/C","second compound 0.316 µM, first compound 0.1 µM",94.9%
same,"viability, T/C","second compound 0.316 µM, first compound 0.316 µM",97.7%
same,"viability, T/C","second compound 0.316 µM, first compound 1 µM",88.3%
same,"viability, T/C","second compound 0.316 µM, first compound 3.16 µM",66.8%
same,"viability, T/C","second compound 0.316 µM, first compound 10 µM",38%
same,"viability, T/C","second compound 1 µM, first compound 0.0316 µM",106%
same,"viability, T/C","second compound 1 µM, first compound 0.1 µM",99.5%
same,"viability, T/C","second compound 1 µM, first compound 0.316 µM",98.3%
same,"viability, T/C","second compound 1 µM, first compound 1 µM",88.2%
same,"viability, T/C","second compound 1 µM, first compound 3.16 µM",70.2%
same,"viability, T/C","second compound 1 µM, first compound 10 µM",36.7%
same,"viability, T/C","second compound 3.16 µM, first compound 0.0316 µM",102%
same,"viability, T/C","second compound 3.16 µM, first compound 0.1 µM",96.9%
same,"viability, T/C","second compound 3.16 µM, first compound 0.316 µM",101%
same,"viability, T/C","second compound 3.16 µM, first compound 1 µM",88.4%
same,"viability, T/C","second compound 3.16 µM, first compound 3.16 µM",72%
same,"viability, T/C","second compound 3.16 µM, first compound 10 µM",36.3%
same,"viability, T/C","second compound 10 µM, first compound 0.0316 µM",99.5%
same,"viability, T/C","second compound 10 µM, first compound 0.1 µM",94.1%
same,"viability, T/C","second compound 10 µM, first compound 0.316 µM",93.2%
same,"viability, T/C","second compound 10 µM, first compound 1 µM",82%
same,"viability, T/C","second compound 10 µM, first compound 3.16 µM",69.7%
same,"viability, T/C","second compound 10 µM, first compound 10 µM",38.6%
